Counter-ions that a name gives are not always drawn.
Test system: Plasmodium falciparum NF54 gametocytes
Details: 384, incubation time: 72 h
Procedure: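 Known antimalarials and MMV control compounds in dose response against each stage (I–V) […] The fitted EC50 is reported as IC50 in µM; '>' marks the top dose reached without a curve.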

[1] = gametocyte stage: Stage I Dose Response IC50 (µM), assay protocol: TSSA
[2] = gametocyte stage: Stage II Dose Response IC50 (µM), assay protocol: TSSA
[3] = gametocyte stage: Stage III Dose Response IC50 (µM), assay protocol: TSSA
[4] = gametocyte stage: Stage IV Dose Response IC50 (µM), assay protocol: TSSA
[5] = gametocyte stage: Stage V Dose Response IC50 (µM), assay protocol: TSSA
[6] = gametocyte stage: Stage I Dose Response IC50 (µM), assay protocol: SaLSSA
[7] = gametocyte stage: Stage II Dose Response IC50 (µM), assay protocol: SaLSSA
[8] = gametocyte stage: Stage III Dose Response IC50 (µM), assay protocol: SaLSSA
[9] = gametocyte stage: Stage IV Dose Response IC50 (µM), assay protocol: SaLSSA
[10] = gametocyte stage: Stage V Dose Response IC50 (µM), assay protocol: SaLSSA

Row | SMILES | IC50 of gametocyte viability [1] [µM] | IC50 of gametocyte viability [2] [µM] | IC50 of gametocyte viability [3] [µM] | IC50 of gametocyte viability [4] [µM] | IC50 of gametocyte viability [5] [µM] | IC50 of gametocyte viability [6] [µM] | IC50 of gametocyte viability [7] [µM] | IC50 of gametocyte viability [8] [µM] | IC50 of gametocyte viability [9] [µM] | IC50 of gametocyte viability [10] [µM]
1 | C[C@@H]1C[C@@H]([C@H](O)CC2CC(=O)NC(=O)C2)C(=O)[C@@H](C)C1 [Cycloheximide] [listing 1 of 2 here] | 1.23 | 2.46 | 2.51 | 1.92 | 4.62 | – | – | – | – | –
2 | C[C@@H]1C[C@@H]([C@H](O)CC2CC(=O)NC(=O)C2)C(=O)[C@@H](C)C1 [Cycloheximide] [listing 2 of 2 here] | – | – | – | – | – | 1.92 | 0.64 | 0.913 | 0.477 | 2.69
3 | Nc1ccc(S(=O)(=O)c2ccc(N)cc2)cc1 [Dapsone] | – | – | – | – | – | > 12.5 | > 12.5 | > 12.5 | > 12.5 | > 12.5
4 | CC(=O)N(O)CCCCCNC(=O)CCC(=O)N(O)CCCCCNC(=O)CCC(=O)N(O)CCCCCN [Deferoxamine mesylate salt] | – | – | – | – | – | > 12.5 | > 12.5 | > 12.5 | > 12.5 | > 12.5
5 | C[C@H]1c2cccc(O)c2C(=O)C2=C(O)[C@]3(O)C(=O)C(C(N)=O)=C(O)[C@@H](N(C)C)[C@@H]3[C@@H](O)[C@@H]21 [Doxycyclin] | – | – | – | – | – | > 12.5 | > 12.5 | > 12.5 | > 12.5 | > 12.5
6 | C[C@H]1c2cccc(O)c2C(O)=C2C(=O)[C@]3(O)C(O)=C(C(N)=O)C(=O)[C@@H](N(C)C)[C@@H]3[C@@H](O)[C@@H]21 [Doxycyclin] | > 12.5 | > 12.5 | > 12.5 | > 12.5 | > 12.5 | – | – | – | – | –
7 | CC[C@H](C)[C@H](NC(=O)[C@H]([C@@H](C)CC)N(C)C(C)=O)C(=O)N[C@H](C(=O)N[C@@H](CC(C)C)C(=O)[C@@]1(C)CO1)[C@@H](C)O [Epoxomycin] | – | – | – | – | – | – | – | – | – | 0.0128
8 | Cc1cc2nc3c(=O)[nH]c(=O)nc-3n(C[C@H](O)[C@H](O)[C@H](O)CO)c2cc1C [Flavin mononucleotid (Riboflavin)] | – | – | – | – | – | > 12.5 | > 12.5 | > 12.5 | > 12.5 | > 12.5
9 | CCCCN(CCCC)CCC(O)c1cc2c(Cl)cc(Cl)cc2c2cc(C(F)(F)F)ccc12 (centres undefined) [Halofantrine] [listing 1 of 2 here] | 0.00577 | – | – | > 12.5 | > 12.5 | – | – | – | – | –
10 | CCCCN(CCCC)CCC(O)c1cc2c(Cl)cc(Cl)cc2c2cc(C(F)(F)F)ccc12 (centres undefined) [Halofantrine] [listing 2 of 2 here] | – | – | – | – | – | 0.00161 | 0.000896 | 0.0233 | 1.51 | 0.0075
11 | CCN(CCO)CCCC(C)Nc1ccnc2cc(Cl)ccc12 (centres undefined) [Hydroxychloroquine] | 0.104 | 0.139 | > 6.25 | > 6.25 | > 6.25 | 0.107 | 0.131 | > 4.49 | > 6.25 | > 6.25
12 | CC1Cc2c([nH]c3cc(F)c(F)cc23)C2(N1)C(=O)Nc1ccc(Cl)cc12 (centres undefined) [KAF246] | – | – | – | – | – | 0.00139 | 0.00186 | 0.0021 | 0.00177 | 0.00235
13 | CC1(C)c2nc(-c3ccc(F)cc3)c(Nc3ccc(Cl)cc3)n2CCN1C(=O)CN [KAF(GNF)179] | – | – | – | – | – | 0.341 | 0.0641 | 0.0199 | 0.00915 | 0.00336
14 | CN(C(=O)c1cn2c(-c3ccc(C#N)cc3)cnc2cn1)c1ccc(C(F)(F)F)cc1 [KAI407] | – | – | – | – | – | 0.593 | 0.636 | 0.415 | 0.329 | 0.156
15 | CNc1ccc(N(C)C(=O)c2cn3c(-c4ccc(Cl)cc4)cnc3cn2)cc1 [KDU691] | – | – | – | – | – | 0.532 | 0.565 | 0.354 | 0.237 | 0.15
16 | CCCCN(CCCC)CC(O)c1cc(Cl)cc2c1-c1ccc(Cl)cc1/C2=C/c1ccc(Cl)cc1 (centres undefined) [Lumefantrine] [listing 1 of 2 here] | – | – | – | – | – | 0.0128 | 0.0131 | 0.015 | 0.599 | 0.0523

Row | SMILES | IC50 of gametocyte viability [1] [µM] | IC50 of gametocyte viability [2] [µM] | IC50 of gametocyte viability [3] [µM] | IC50 of gametocyte viability [4] [µM] | IC50 of gametocyte viability [5] [µM] | IC50 of gametocyte viability [6] [µM] | IC50 of gametocyte viability [7] [µM] | IC50 of gametocyte viability [8] [µM] | IC50 of gametocyte viability [9] [µM] | IC50 of gametocyte viability [10] [µM]
17 | CCCCN(CCCC)CC(O)c1cc(Cl)cc2c1-c1ccc(Cl)cc1/C2=C/c1ccc(Cl)cc1 (centres undefined) [Lumefantrine] [listing 2 of 2 here] | 0.0224 | 0.0352 | 0.0227 | > 9.77 | > 12.5 | – | – | – | – | –
18 | OC(c1cc(C(F)(F)F)nc2c(C(F)(F)F)cccc12)C1CCCCN1 (centres undefined) [Mefloquine (+ RS)] | 0.0512 | 0.0471 | 0.0585 | 1.64 | 6.34 | – | – | – | – | –
19 | O[C@@H](c1cc(C(F)(F)F)nc2c(C(F)(F)F)cccc12)[C@H]1CCCCN1 [Mefloquine (+ RS)] | – | – | – | – | – | 0.0379 | 0.039 | 0.078 | 0.579 | 0.158
20 | CN(C)c1ccc2nc3ccc(=[N+](C)C)cc-3sc2c1 [Methylene Blue trihydrate] | 0.0222 | 0.0164 | 0.0181 | 0.0454 | 1.04 | – | – | – | – | –
21 | CN(C)c1ccc2nc3ccc(N(C)C)cc3[s+]c2c1 [Methylene Blue trihydrate] | – | – | – | – | – | 0.0199 | 0.0153 | 0.0133 | 0.0117 | 0.258
22 | CC(=O)N[C@@H](C(=O)O)C(C)(C)S [N-acetyl-D-penicillamine] | – | – | – | – | – | > 12.5 | > 12.5 | > 12.5 | > 12.5 | > 12.5
23 | COc1cc(N[C@H](C)CCCN)c2nccc(C)c2c1Oc1ccc(Cl)c(Cl)c1 [NPC-1161B] [listing 1 of 2 here] | 5.21 | 6.63 | 4.57 | 6.24 | 5.22 | – | – | – | – | –
24 | COc1cc(N[C@H](C)CCCN)c2nccc(C)c2c1Oc1ccc(Cl)c(Cl)c1 [NPC-1161B] [listing 2 of 2 here] | – | – | – | – | – | 2 | 2.02 | 3.51 | 3.6 | 2.86
25 | CC(C)(C)NCc1cc(Nc2ccnc3cc(Cl)ccc23)c2c(c1O)CCCC2 [Naphthoquine] [listing 1 of 2 here] | 0.0234 | 0.0128 | > 4.17 | > 4.17 | > 4.17 | – | – | – | – | –
26 | CC(C)(C)NCc1cc(Nc2ccnc3cc(Cl)ccc23)c2c(c1O)CCCC2 [Naphthoquine] [listing 2 of 2 here] | – | – | – | – | – | 0.0251 | 0.0145 | 0.296 | > 4.17 | > 4.17
27 | C(CN1CCOCC1)Oc2ccc(cc2)[C@@H]3CC[C@@]4(CC3)OO[C@@]5(O4)[C@@H]6CC7C[C@@H](CC5C7)C6 [OZ 439 mesylate] | – | – | – | – | – | 0.0107 | 0.00536 | 0.00342 | 0.0019 | > 12.5
28 | c1cc([C@H]2CC[C@]3(CC2)OO[C@]2(O3)C3CC4CC(C3)CC2C4)ccc1OCCN1CCOCC1 [OZ 439 mesylate] | 0.0102 | 0.01 | 0.00852 | 0.00553 | > 12.5 | – | – | – | – | –
29 | CCc1nc(N)nc(N)c1OCCCOc1ccccc1CCC(=O)O [P218.HCl] | – | – | – | – | – | > 12.5 | > 12.5 | > 12.5 | > 12.5 | > 12.5
30 | CCN(CC)CCCC(C)Nc1cc(OC)cc2cccnc12 (centres undefined) [Pamaquine (diethlyprimaquine)] | 1.67 | 2.87 | 5.15 | 5.28 | 9.38 | 1.68 | 1.4 | 2.41 | 2.82 | 2.53
31 | N=C(N)c1ccc(OCCCCCOc2ccc(C(=N)N)cc2)cc1 [Pentamidine] [listing 1 of 2 here] | 0.713 | 0.878 | 1.19 | 1 | 2.36 | – | – | – | – | –
32 | N=C(N)c1ccc(OCCCCCOc2ccc(C(=N)N)cc2)cc1 [Pentamidine] [listing 2 of 2 here] | – | – | – | – | – | 0.397 | 0.591 | 0.697 | 0.813 | 2.14

Reference: the supplement of paper PMC4723716
